In patent US20250066344A1 (BRISTOL-MYERS SQUIBB COMPANY, priority 2021, published 2025):

molecular target: T1, human RXFP1 (Homo sapiens, UniProt Q9HBX9); assay: RXFP1 cyclic adenosine monophosphate (cAMP) assay, hRXFP1 HEK293; format: cell-based; settings: HEK293 cells stably expressing human RXFP1; 30 min at room temperature; HTRF cAMP
T1 construct: expressed in transfected cells
T1 sequence (Q9HBX9 1-757): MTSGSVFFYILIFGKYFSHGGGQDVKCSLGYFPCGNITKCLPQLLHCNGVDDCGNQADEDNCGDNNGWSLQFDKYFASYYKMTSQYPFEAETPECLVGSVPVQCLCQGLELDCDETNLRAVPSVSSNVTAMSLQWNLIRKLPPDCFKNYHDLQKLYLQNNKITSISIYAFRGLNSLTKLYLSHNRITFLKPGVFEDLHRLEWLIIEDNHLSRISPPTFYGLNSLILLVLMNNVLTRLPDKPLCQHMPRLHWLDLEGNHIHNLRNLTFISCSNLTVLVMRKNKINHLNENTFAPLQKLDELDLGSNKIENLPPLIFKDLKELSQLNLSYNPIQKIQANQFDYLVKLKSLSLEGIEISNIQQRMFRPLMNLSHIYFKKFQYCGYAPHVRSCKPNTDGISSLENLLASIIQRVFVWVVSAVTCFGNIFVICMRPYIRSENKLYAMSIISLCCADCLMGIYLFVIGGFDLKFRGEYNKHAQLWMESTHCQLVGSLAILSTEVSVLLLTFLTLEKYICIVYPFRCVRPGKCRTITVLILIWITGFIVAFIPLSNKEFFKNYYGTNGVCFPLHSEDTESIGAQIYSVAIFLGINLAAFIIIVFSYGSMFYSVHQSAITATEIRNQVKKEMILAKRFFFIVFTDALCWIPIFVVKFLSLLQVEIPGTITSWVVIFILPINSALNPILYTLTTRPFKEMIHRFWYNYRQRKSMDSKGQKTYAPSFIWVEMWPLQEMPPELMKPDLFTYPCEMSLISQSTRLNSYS
Experimental: RXFP1 Cyclic Adenosine Monophosphate (cAMP) Assays. Human embryonic kidney cells 293 (HEK293) cells and HEK293 cells stably expressing human RXFP1, were cultured in MEM medium supplemented with 10% qualified FBS, and 300 μg/ml hygromycin (Life Technologies). Cells were dissociated and suspended in assay buffer. The assay buffer was HBSS buffer (with calcium and magnesium) containing 20 mM HEPES, 0.05% BSA, and 0.5 mM IBMX. Cells (3000 cells per well, except 1500 cell per well for HEK293 cells stably expressing human RXFP1) were added to 384-well Proxiplates (Perkin-Elmer). Cells were immediately treated with test compounds in DMSO (2% final) at final concentrations in the range of 0.010 nM to 50 μM. Cells were incubated for 30 min at room temperature. The level of intracellular cAMP was determined using the HTRF HiRange cAMP assay reagent kit (Cisbio) according to manufacturer's instructions. Solutions of cryptate conjugated anti-cAMP and d2 fluorophore-labelled cAMP were made in a supplied lysis buffer separately. Upon completion of the reaction, the cells were lysed with equal volume of the d2-cAMP solution and anti-cAMP solution. After a 1 h room temperature incubation, time-resolved fluorescence intensity was measured using the Envision (Perkin-Elmer) at 400 nm excitation and dual emission at 590 nm and 665 nm. A calibration curve was constructed with an external cAMP standard at concentrations ranging from 2.7 μM to 0.1 μM by plotting the fluorescent intensity ratio from 665 nm emission to the intensity from the 590 nm emission against cAMP concentrations. The potency and activity of a compound to […] cAMP production was then determined by fitting to a 4-parametric logistic equation from a plot of cAMP level versus compound concentrations.
The examples disclosed below were tested in the human RXFP1 (hRXFP) HEK293 cAMP assay described above and found to have agonist activity. Tables 1-3, lists EC50 values in the hRXFP1 HEK293 cAMP assay measured for the examples.
Table A lists EC50 values in the hRXFP1 HEK293 cAMP assay measured for the examples.

`COc1ccc(C2=NOC3C4CCC(C4)C23)cc1C(=O)Nc1cc2nc(C)sc2cc1C(=O)Nc1ccc(F)c(C(F)(F)F)c1` (centres unmarked) [Example 10, N-(4-fluoro-3-(trifluorometh-yl)phenyl)-5-(5-(3a,4,5,6,7,7a-hexahydro-4,7-methano-benzo[d]isox-azol-3-yl)-2-methoxybenz-amido)-2-methylbenzo [d]thiazole-6-carboxamide] was tested. Which EC50 did it give?
The EC50 was 130 nM.

`COc1ccc(C2=NOC(CO)C2)cc1C(=O)Nc1cc2c(cc1C(=O)Nc1ccc(F)c(C(F)(F)F)c1)OC(F)(F)O2` (single isomer, unassigned) [Example 72, 2,2-difluoro-N-(4-fluoro-3-(trifluoromethyl)phenyl)-6-(5-(5-(hydroxymethyl)-4,5-dihydroisoxazol-3-yl)-2-methoxybenzamido) benzo[d][1,3]dioxole-5-carboxamide] was tested. Which EC50 did it give?
The EC50 was 65 nM.

For `COc1ccc(-c2cc(C(=O)O)ccc2F)cc1C(=O)Nc1cc2c(cc1C(=O)Nc1ccc(F)c(C(F)(F)F)c1)OC(F)(F)O2` [Example 57, 3′-((2,2-difluoro-6-((4-fluoro-3-(trifluoromethyl)phenyl)carbamoyl)benzo[d][1,3]dioxol-5-yl)carbamoyl)-6-fluoro-4′-methoxy-[1,1′-biphenyl]-3-carboxylic acid], which EC50 is on record?
Its EC50 is 125 nM.

`COc1ccc(-c2cc([C@H](OC(=O)NC3CCC3)C(F)(F)F)ccc2F)cc1C(=O)Nc1cc2sc(C)nc2cc1C(=O)Nc1ccc(F)c(C(F)(F)F)c1` [Example 16, (S)-2,2,2-trifluoro-1-(6-fluoro-3′-((5-((4-fluoro-3-(trifluorometh-yl)phenyl)car-bamoyl)-2-methylbenzo [d]thiazol-6-yl)carbamoyl)-4′-methoxy-[1,1′-biphen-yl]-3-ylethylcyclobutylcar-bamate] was tested. Which EC50 did it give?
Its EC50 is 46 nM.

Which EC50 does the source give for `COc1ccc(C2=NOC3CC(COP(=O)(O)O)CC23)cc1C(=O)Nc1cc2nc(C)sc2cc1C(=O)Nc1ccc(F)c(C(F)(F)F)c1` (centres unmarked) [Example 9, (3-(3-((6-((4-fluoro-3-(trifluorometh-yl)phenyl)car-bamoyl)-2-methylbenzo [d]thiazol-5-yl)carbamo-yl)-4-meth-oxyphenyl)-3a,5,6,6a-tetra-hydro-4H-cyclopenta[d]isoxazol-5-yl)methyldi-hydrogen phosphate] here?
The EC50 was 110 nM.

For `COc1ccc(C#CC(C)(C)O)cc1C(=O)Nc1cc2c(cc1C(=O)Nc1ccc(F)c(C(F)(F)F)c1)OC(F)(F)O2` [Example 58, 2,2-difluoro-N-(4-fluoro-3-(trifluoromethyl)phenyl)-6-(5-(3-hydroxy-3-methylbut-1-yn-1-yl)-2-methoxybenzamido) benzo[d][1,3]dioxole-5-carboxamide], which EC50 is on record?
Its EC50 is 1060 nM.

For `COc1ccc(-c2cc(C(C)(C)O)on2)cc1C(=O)Nc1cc2c(cc1C(=O)Nc1ccc(F)c(C(F)(F)F)c1)OC(F)(F)O2` [Example 74], which EC50 is on record?
The EC50 was 127 nM.

With `COc1ccc(C2=NOC3(CCN(CC(N)=O)CC3)C2)cc1C(=O)Nc1cc2c(cc1C(=O)Nc1ccc(F)c(C(F)(F)F)c1)OC(F)(F)O2` [Example 69, 6-(5-(8-(2-amino-2-oxoethyl)-1-oxa-2,8-diazaspiro[4.5]dec-2-en-3-yl)-2-methoxybenzamido)-2,2-difluoro-N-(4-fluoro-3-(trifluoromethyl)phenyl) benzo[d][1,3]dioxole-5-carboxamide] as the molecule, how does the EC50 read?
The EC50 was 42 nM.

How did the EC50 turn out when `COc1ccc(C2=NOC3COCC23)cc1C(=O)Nc1cc2nc(C)sc2cc1C(=O)Nc1ccc(F)c(C(F)(F)F)c1` (centres unmarked) [Example 3, N-(4-fluoro-3-(trifluorometh-yl)phenyl)-5-(2-methoxy-5-(3a,4,6,6a-tetrahydrofuro [3,4-d]isox-azol-3-yl)-benzamido)-2-methylbenzo [d]thiazole-6-carboxamide] was run?
The EC50 was 8.6 nM.

Which EC50 does the source give for `COc1ccc(-c2cc(S(=O)(=O)NC(C)(C)C)ccc2F)cc1C(=O)Nc1cc2c(cc1C(=O)Nc1ccc(F)c(C(F)(F)F)c1)OC(F)(F)O2` [Example 64, 6-(5′-(N-(tert-butyl)sulfamoyl)-2′-fluoro-4-methoxy-{1,1′-biphenyl]-3-carboxamido)-2,2-difluoro-N-(4-fluoro-3-(trifluoromethyl)phenyl) benzo[d][1,3]dioxole-5-carboxamide] here?
The EC50 was 37 nM.

With `COc1ccc(C2=NOC3CC(O)CC23)cc1C(=O)Nc1cc2nc(C)sc2cc1C(=O)Nc1ccc(F)c(C(F)(F)F)c1` (single isomer, unassigned) [Example 24, N-(4-fluoro-3-(trifluoro-methyl)phen-yl)-5-(5-(5-hydroxy-3a,5,6,6a-tetrahydro-4H-cyclopenta [d]isoxazol-3-yl)-2-methoxy-benzamido)-2-methylbenzo [d]thiazole-6-carboxamide] as the molecule, how does the EC50 read?
Its EC50 is 750 nM.

Which EC50 does the source give for `COc1ccc(C2=NOC3(CCN(C(=O)CO)CC3)C2)cc1C(=O)Nc1cc2c(cc1C(=O)Nc1ccc(F)c(C(F)(F)F)c1)OC(F)(F)O2` [Example 68, 2,2-difluoro-N-(4-fluoro-3-(trifluoromethyl)phenyl)-6-(5-(8-(2-hydroxyacetyl)-1-oxa-2,8-diazaspiro[4.5]dec-2-en-3-yl)-2-methoxybenzamido) benzo[d][1,3]dioxole-5-carboxamide] here?
Its EC50 is 173 nM.

For `COc1ccc(C(=O)NCC2(S(C)(=O)=O)CC2)cc1C(=O)Nc1cc2c(cc1C(=O)Nc1ccc(F)c(C(F)(F)F)c1)OC(F)(F)O2` [Example 35, N3-(2,2-difluoro-6-((4-fluoro-3-(trifluoromethyl)phenyl)carbamoyl)benzo[d][1,3]dioxol-5-yl)-4-methoxy-N1-((1-(methylsulfonyl)cyclopropyl)methyl)isophthalamide], which EC50 is on record?
The EC50 was 6 nM.

How did the EC50 turn out when `COc1ccc(C2=NOC3CC(CO)CC23)cc1C(=O)Nc1cc2c(cc1C(=O)Nc1ccc(F)c(C(F)(F)F)c1)OC(F)(F)O2` (centres unmarked) [Example 99, 2,2-difluoro-N-(4-fluoro-3-(trifluoromethyl)phenyl)-6-(5-(5-(hydroxymethyl)-3a,5,6,6a-tetrahydro-4H-cyclopenta[d]isoxazol-3-yl)-2-methoxybenzamido) benzo[d][1,3]dioxole-5-carboxamide] was run?
The EC50 was 3.9 nM.

Which EC50 does the source give for `COc1ccc(C2=NOC3CC(O)CC23)cc1C(=O)Nc1cc2nc(C)sc2cc1C(=O)Nc1ccc(F)c(C(F)(F)F)c1` (single isomer, unassigned) [Example 27, N-(4-fluoro-3-(trifluorometh-yl)phenyl)-5-(5-(5-hydroxy-3a,5,6,6a-tetra-hydro-4H-cyclopenta[d]isoxazol-3-yl)-2-methoxy-benzamido)-2-methylbenzo [d]thiazole-6-carboxamide] here?
Its EC50 is 2200 nM.

For `COc1ccc(C2=NOC3CN(C(=O)CO)CC23)cc1C(=O)Nc1cc2nc(C)sc2cc1C(=O)Nc1ccc(F)c(C(F)(F)F)c1` (centres unmarked) [Example 5, N-(4-fluoro-3-(trifluorometh-yl)phenyl)-5-(5-(5-(2-hy-droxyacetyl)-3a,5,6,6a-tetra-hydro-4H-pyr-rolo[3,4-d]isoxazol-3-yl)-2-methoxy-benzamido)-2-methylbenzo [d]thiazole-6-carboxamide], which EC50 is on record?
The EC50 was 16 nM.

For `COc1ccc(C2CC3(C2)CN(C(=O)C(C)(C)O)C3)cc1C(=O)Nc1cc2c(cc1C(=O)Nc1ccc(F)c(C(F)(F)F)c1)OC(F)(F)O2` [Example 97, 2,2-difluoro-N-(4-fluoro-3-(trifluoromethyl)phenyl)-6-(5-(2-(2-hydroxy-2-methylpropanoyl)-2-azaspiro[3.3]heptan-6-yl)-2-methoxybenzamido) benzo[d][1,3]dioxole-5-carboxamide], which EC50 is on record?
The EC50 was 666 nM.
